Assay results from ChEMBL document CHEMBL1201862, “PubChem BioAssay data set” (2004).
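Results reflect a 48-hour exposure of cells in 96-well plates to compound at five concentrations. The concentration for 50% growth inhibition is given as GI50.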 Active and inactive are the calls of the source. Rule as the data show it: active = GI50 up to about 1.1 µM and inactive = higher.

Experiments:
Assay in all cases: inhibition of tumour cell growth, NCI panel, 48 h
[1] = system: 786-0
[2] = system: A498
[3] = system: A549
[4] = system: ACHN
[5] = system: BT-549
[6] = system: CAKI-1
[7] = system: CCRF-CEM
[8] = system: COLO 205
[9] = system: DU-145
[10] = system: EKVX
[11] = system: HCT-116
[12] = system: HCT-15
[13] = system: HL-60
[14] = system: HOP-62
[15] = system: HOP-92
[16] = system: HT-29
[17] = system: IGROV-1
[18] = system: K562
[19] = system: LOX IMVI
[20] = system: M14
[21] = system: MCF7
[22] = system: MDA-MB-231
[23] = system: MDA-MB-435
[24] = system: MDA-N
[25] = system: MOLT-4
[26] = system: NCI-H226
[27] = system: NCI-H23
[28] = system: NCI-H460
[29] = system: OVCAR-3
[30] = system: OVCAR-5
[31] = system: PC-3
[32] = system: RPMI-8226
[33] = system: SF-295
[34] = system: SF-539
[35] = system: SK-MEL-28
[36] = system: SK-MEL-2
[37] = system: SK-MEL-5
[38] = system: SK-OV-3
[39] = system: SN12C
[40] = system: SNB-19
[41] = system: SR
[42] = system: SW-620
[43] = system: T47D
[44] = system: TK-10
[45] = system: U-251
[46] = system: UACC-257
[47] = system: UACC-62
[48] = system: UO-31
[49] = system: HCC 2998
[50] = system: KM12
[51] = system: NCI-H522
[52] = system: NCI/ADR-RES
[53] = system: OVCAR-4
[54] = system: OVCAR-8
[55] = system: RXF 393
[56] = system: SF-268
[57] = system: SNB-75

Measured: GI50

COC(=O)Cc1c(-c2c(CC(=O)OC)c3ccccc3n2C2OC(COC3OC(COC(C)=O)C(OC(C)=O)C(OC(C)=O)C3OC(C)=O)C(O)C(O)C2O)[nH]c2ccccc12 (configuration not stated)
> 100 µM: [12]
inactive: [1] 37 µM | [2] 57.8 µM | [3] > 100 µM | [4] > 100 µM | [5] 44.7 µM | [6] > 100 µM | [7] > 100 µM | [8] > 100 µM | [9] > 100 µM | [10] > 100 µM | [11] > 100 µM | [13] > 100 µM | [14] 23 µM | [15] 27.9 µM | [16] > 100 µM | [17] 75.3 µM | [18] > 100 µM | [19] > 100 µM | [20] > 100 µM | [21] > 100 µM | [22] 29.2 µM | [23] > 100 µM | [24] > 100 µM | [25] > 100 µM | [26] 61.4 µM | [27] > 100 µM | [28] > 100 µM | [29] > 100 µM | [30] > 100 µM | [31] > 100 µM | [32] > 100 µM | [33] 36.6 µM | [34] 51.5 µM | [35] > 100 µM | [36] 24.4 µM | [37] > 100 µM | [38] 74.8 µM | [39] > 100 µM | [40] 22.8 µM | [41] > 100 µM | [42] > 100 µM | [43] > 100 µM | [44] 71 µM | [45] 44.3 µM | [46] > 100 µM | [47] > 100 µM | [48] > 100 µM

O=C1Nc2ccccc2C(=O)O/C(Cc2ccccc2)=N\c2ccccc21
> 100 µM: [12]
inactive: [1] > 100 µM | [3] > 100 µM | [4] > 100 µM | [5] > 100 µM | [6] > 100 µM | [7] 36.1 µM | [8] > 100 µM | [9] > 100 µM | [10] > 100 µM | [49] 82.8 µM | [11] > 100 µM | [13] > 100 µM | [14] > 100 µM | [16] > 100 µM | [17] > 100 µM | [18] > 100 µM | [50] > 100 µM | [19] > 100 µM | [20] > 100 µM | [21] > 100 µM | [23] > 100 µM | [24] > 100 µM | [25] > 100 µM | [26] > 100 µM | [27] > 100 µM | [28] > 100 µM | [51] > 100 µM | [52] > 100 µM | [29] > 100 µM | [53] > 100 µM | [30] > 100 µM | [54] > 100 µM | [31] > 100 µM | [32] > 100 µM | [55] > 100 µM | [56] > 100 µM | [33] > 100 µM | [34] > 100 µM | [35] > 100 µM | [36] > 100 µM | [37] > 100 µM | [38] > 100 µM | [39] > 100 µM | [40] > 100 µM | [57] 25.9 µM | [41] > 100 µM | [42] > 100 µM | [43] > 100 µM | [44] > 100 µM | [45] > 100 µM | [46] 54.6 µM | [47] > 100 µM | [48] > 100 µM
